The values below come from patent US11241437B2, “Heterocyclic compounds, preparation methods and uses thereof” (InventisBio Co., Ltd., priority 2019, dated 2022).

What all share (type): physicochemical
Data set [1] can be described thus: Solubility of Form A of Compound 2 in organic solvents. As to conditions: for Solubility: organic solvent or mixture.
Data set [2] in a line: Solubility of Form A and Form B of Compound 2 in bio-relevant media. As to conditions: for Solubility: 37° C.; for XRPD patterns of remaining solids: FaSSIF and water, at 24 hours; for solubility at 0.5 h / solubility at 2 h / solubility at 24 h: 37 °C, thermodynamic from solid.
Protocol: Solubility in Bio-relevant Media: Form A and Form B was added into SGF, FeSSIF, FaSSIF and water, respectively. The suspensions were kept shaking at 37° C. with 200 rpm for 24 hours. At 0.5 h, 2 h and 24 h, suspensions were filtered and drug concentrations of filtrates were analyzed by HPLC. pH of filtrates was measured at each time point. The remaining solids at 24 hours were characterized by XRPD.
The nature of data set [3]: Manual grinding of Form A and Form B of Compound 2. Conditions: ground manually for 5 min. As for the experimental part: About 10-20 mg of Compound 2 in Form A and Form B were ground manually for 5 min, respectively.
A short description of data set [4]: Solid state stability of Form B of Compound 2. As for the experimental part:
Method 2. HPLC analysis was performed with an Agilent HPLC 1260 series instrument. A representative HPLC method used for purity, solubility and stability study for Compound 2 analysis.
Solid State Stability of Form B: About 10 mg of Form B was open placed at 40° C./75% RH and 60° C. for 7 days and at 25° C./92.5% RH for 10 days, respectively. Prepare samples in duplicate (n=2) per condition. The solids were analyzed by XRPD and HPLC (only for 40° C./75% RH and 60° C.).

Data set [5] is described as follows: Dynamic moisture sorption analysis (DVS) of Form B of Compound 2. As for the experimental part:
Method 2. Used for studies with solid state of Compound 2. Moisture sorption/desorption data was collected on IGAsorp Dynamic Moisture Sorption Analyzer. The sample was placed into a tarred sample chamber and automatically weighed. The sample was dried at 50° C. until the humidity was less than 0.3% and cooled to 25° C. The instrument parameters were set as given below.

Data set [6] can be described thus: Solubility of Compound 1 solid forms in bio-relevant media and water. As to conditions: FaSSIF. As for the experimental part: Solubility Studies: Solubility of Form IV was tested in three bio-relevant media (Simulated Gastric Fluid (SGF), Fasted State Simulated Intestinal Fluid (FaSSIF), and Fed State Simulated Intestinal Fluid (FeSSIF)) and water. […] Form IV (˜10 mg) was weighed into 2 mL of four media to make suspensions respectively, and about 10 mg of the amorphous starting material was also added into 2 mL of FaSSIF. Then all suspensions were shaken at 37° C. with 200 rpm for up to 24 hours. At 0.5, 2 and 24 hours, about 0.7 mL of each suspension was filtered. The filtrate was analyzed by HPLC and pH meter, and the residual solids were also checked by XRPD at 24 hours.

The nature of data set [7]: Solubility of amorphous Compound 1 in solvents (anti-solvent precipitation screening). Conditions: RT.
Data set [8] can be described thus: pKa of Compounds 1 and 2.
A short description of data set [9]: Competitive slurry (interconversion) of Form A, Form B and Form C of Compound 2. As to conditions: RT or 50° C. As for the experimental part: Interconversion Studies: Competitive slurry of Form A, Form B and Form C was performed in acetone and acetone/water (1/4) at RT or 50° C., with details shown below.
The nature of data set [10]: Interconversion studies of solid forms of Compound 1 (slurry). As to the method:
Interconversion Studies: Equal amounts (˜7 mg) of Form I, II and III were mixed together and then suspended in 0.5 mL of different solvents at room temperature or 50° C., respectively. Residual solids were collected by filtration and characterized at appropriate time. Additionally, Form IV (˜12 mg) was slurried in 0.5 ml, water or MeOH/water (1/4) at RT or 50° C. for 3 days. Residual solids were collected by filtration and analyzed by XRPD.

Data set [11] in a line: Polymorph characterization summary of Compound 1 forms (form stability).
Description: In the polymorph screening, five XRPD Patterns (FIG. 11) were generated, and four forms were identified including 2 anhydrates and 2 hydrates.

For orientation: Solubility means how much of the substance goes into solution per volume. The term solubility denotes the concentration that dissolves in the medium under given conditions. One may read the pKa as the negative logarithm of the acid dissociation constant.

In brackets after ≈: the same amount, converted by molar mass.

`C=CC(=O)N1C[C@H](C)N(c2nc(=O)n(-c3c(C4CC4)ncnc3C3CC3)c3nc(-c4c(N)cccc4F)c(F)cc23)C[C@H]1C` (single isomer, unassigned) [Form A]: the “Solubility in other solvents” value in [1] was “practically insoluble”. Moreover, the Solubility in data set [1] (DCM, read-out: Solubility in DCM) is over 92000 µg/mL; in [1] (MeOH, butanone, THF, ACN, acetone, read-out: Solubility in MeOH, butanone, THF, ACN and acetone), 20000 to 33000 µg/mL (≈ 33400 to 55100 µM); in data set [2] (FaSSIF (pH 6.5), 0.5 h), 19 µg/mL (≈ 31.7 µM); in data set [2] (FaSSIF (pH 6.5), 2 h) it was 29 µg/mL (≈ 48.4 µM); in [2] (FaSSIF (pH 6.5), 24 h), 24 µg/mL (≈ 40.1 µM); in [2] (FeSSiF (pH 5.0), 0.5 h), 41 µg/mL (≈ 68.5 µM). In addition, the Solubility in [2] (FeSSiF (pH 5.0), 2 h) amounted to 45 µg/mL (≈ 75.2 µM); in [2] (FeSSiF (pH 5.0), 24 h), 42 µg/mL (≈ 70.2 µM); in data set [2] (SGF (pH 1.2), 0.5 h), 67 µg/mL (≈ 112 µM); in data set [2] (SGF (pH 1.2), 2 h), 72 µg/mL (≈ 120 µM); in [2] (SGF (pH 1.2), 24 h), 170 µg/mL (≈ 284 µM); in data set [2] (Water, 0.5 h) it was 15 µg/mL (≈ 25.1 µM). Besides, the Solubility was 25 µg/mL (≈ 41.8 µM) in data set [2] (Water, 2 h) and 43 µg/mL (≈ 71.8 µM) in [2] (Water, 24 h). The “XRPD patterns of remaining solids” value in [2] (SGF, FeSSIF) is reported as “unchanged”. Also, the “Crystal form after grinding” value in data set [3] is “unchanged”.

`C=CC(=O)N1C[C@H](C)N(c2nc(=O)n(-c3c(C4CC4)ncnc3C3CC3)c3nc(-c4c(N)cccc4F)c(F)cc23)C[C@H]1C` (single isomer, unassigned) [Form B]: the solubility at 0.5 h is 16 µg/mL (≈ 26.7 µM) in data set [2] (FaSSIF, pH 6.5, fassif, FaSSIF (pH 6.5), 0.5 h); 44 µg/mL (≈ 73.5 µM) in data set [2] (FeSSIF, pH 5, fessif, FeSSiF (pH 5.0), 0.5 h); 60 µg/mL (≈ 100 µM) in data set [2] (SGF, pH 1.2, simulated gastric fluid, SGF (pH 1.2), 0.5 h); 21 µg/mL (≈ 35.1 µM) in [2] (water, 0.5 h). Also, the solubility at 2 h was 51 µg/mL (≈ 85.2 µM) in data set [2] (FaSSIF, pH 6.5, fassif, FaSSIF (pH 6.5), 2 h); 43 µg/mL (≈ 71.8 µM) in data set [2] (FeSSIF, pH 5, fessif, FeSSiF (pH 5.0), 2 h); 58 µg/mL (≈ 96.9 µM) in [2] (SGF, pH 1.2, simulated gastric fluid, SGF (pH 1.2), 2 h); 20 µg/mL (≈ 33.4 µM) in data set [2] (water, 2 h). The solubility at 24 h was found to be 18 µg/mL (≈ 30.1 µM) in data set [2] (FaSSIF, pH 6.5, fassif, FaSSIF (pH 6.5), 24 h) and 37 µg/mL (≈ 61.8 µM) in data set [2] (FeSSIF, pH 5, fessif, FeSSiF (pH 5.0), 24 h). Also, the Solubility in [2] (SGF (pH 1.2), 24 h) turned out to be 56 µg/mL (≈ 93.5 µM); in data set [2] (Water, 24 h) it was 19 µg/mL (≈ 31.7 µM). Moreover, the “XRPD patterns of remaining solids” value in [2] (SGF, FeSSIF) is recorded as “unchanged”. Besides, the XRPD result in [4] (25° C./92.5% RH, After 10 d) is “Unchanged”; in data set [4] (40° C./75% RH, After 7 d), “Unchanged”; in data set [4] (60° C., After 7 d), “Unchanged”. Moreover, the Purity-7 d was determined as 98.97 Area % in data set [4] (40° C./75% RH) and 98.82 Area % in [4] (60° C.). The compound also displayed a Purity decrease in data set [4] (60° C. for 7 days) of 0.16%. The “Initial Purity” value in data set [4] (initial, before storage) was found to be 98.98 Area %. Besides, in [5], the “Crystal form after DVS testing” value was “without changing of crystal form”. Also, the “Hygroscopicity (DVS)” value in [5] (25° C.) was “slightly hygroscopic”. For the same compound, in [5] (at 0-80% RH, 25° C.), the “Water absorbed (DVS)” value is given as about 0.84%. In addition, the “Crystal form after grinding” value in data set [3] is recorded as “crystallinity of Form B became weak”.

For `C=CC(=O)N1C[C@H](C)N(c2nc(=O)n(-c3c(C4CC4)ncnc3C3CC3)c3nc(-c4c(N)cccc4F)c(Cl)cc23)C[C@H]1C` [Amorphous material], in data set [6] (37° C., 0.5 h), the Solubility is 302 µg/mL (≈ 491 µM). Moreover, in [6] (37° C., 2 h), the Solubility turned out to be 263 µg/mL (≈ 428 µM). Also, in [6] (37° C., 24 h), the Solubility came out at 283 µg/mL (≈ 460 µM) and the “XRPD-24 h of residual solids” value is “unchanged”. Also, the “Solubility in FaSSIF” value in [6] (time point not stated, listed as amorphous starting material) stood at 300 µg/mL (≈ 488 µM). For the same compound, in [7], the “Solubility in MTBE, water and heptane” value was “low solubility”; the “Solubility in most solvents” value is “high solubility”.

In data set [8], `C=CC(=O)N1C[C@H](C)N(c2nc(=O)n(-c3c(C4CC4)ncnc3C3CC3)c3nc(-c4c(N)cccc4F)c(Cl)cc23)C[C@H]1C` [Compound 1] displayed a pKa of about 3.

With `C=CC(=O)N1C[C@H](C)N(c2nc(=O)n(-c3c(C4CC4)ncnc3C3CC3)c3nc(-c4c(N)cccc4F)c(F)cc23)C[C@H]1C` [Compound 2], in data set [8], the pKa is about 3.

Take `C=CC(=O)N1C[C@H](C)N(c2nc(=O)n(-c3c(C4CC4)ncnc3C3CC3)c3nc(-c4c(N)cccc4F)c(F)cc23)C[C@H]1C` [Form A, Form B and Form C]: the “Form after competitive slurry” value in [9] (non-aqueous solvent (acetone), after 1 day) is listed as “completely converted to Form B”; in data set [9] (solvent-aqueous solution (acetone/water 1/4), after 7 days), “showed tendency to convert to Form B”.

For the compound `C=CC(=O)N1C[C@H](C)N(c2nc(=O)n(-c3c(C4CC4)ncnc3C3CC3)c3nc(-c4c(N)cccc4F)c(Cl)cc23)C[C@H]1C` [Form I, II and III], the “XRPD of wet cake” value is “Form IV” in [10] (EA/MTBE (1/4), 50° C., 3 days); “Form IV” in data set [10] (EA/MTBE (1/4), RT, 3 days); “Form IV” in data set [10] (IPA, 50° C., 4 days); “Pattern 1” in data set [10] (IPA, RT, 3 days); “Form IV” in [10] (MeOH/Water (1/4), 50° C., 3 days); “Form II” in data set [10] (MeOH/Water (1/4), RT, 3 days).

Turning to `C=CC(=O)N1C[C@H](C)N(c2nc(=O)n(-c3c(C4CC4)ncnc3C3CC3)c3nc(-c4c(N)cccc4F)c(Cl)cc23)C[C@H]1C` [Form III], the “Stability of the solid form” value in data set [11] was “not stable”.

`C=CC(=O)N1C[C@H](C)N(c2nc(=O)n(-c3c(C4CC4)ncnc3C3CC3)c3nc(-c4c(N)cccc4F)c(Cl)cc23)C[C@H]1C` [Form II]: in data set [11], the “Stability of the solid form” value is recorded as “not stable”.
